# Results reported in US20060002881A1, “Perfluorocarbon-soluble compounds” (priority 2004, published 2006).
# Key:
# Type in all cases: physicochemical
# [1] = Solvent solubility of perfluoroalkanamides; design: key: S: complete dissolve in the solvent at room temperature; P: precipitation in the solvent; settings: 3% w/w; for Solubility in Acetone: room temperature
# Description: It is clear from the observation that perfluoroalkanamides of the present invention can easily form micelles in acetone at room temperature. With shorter perfluoroalkyl group (i.e., C6F13—), perfluoroalkanamide can dissolve into all tested hydrocarbon solvents at room temperature, but precipitate in fluorocarbon (i.e., CF-76).
# [2] = Solubility of C7F15-MPEG in PFC; settings: decreases with increment of MW of MPEG
# [3] = Ternary phase diagram / phase behavior of PFC/water/fluorosurfactant (PFC microemulsion formation)
# Description: The formation of PFC-in-water emulsion requires high energy to disperse PFC as surfactant-stabilized microdroplets in aqueous phase; while, for thermodynamic stable PFC microemulsion, two immiscible liquid phases with the aid of a pertinent fluorosurfactant can turn into an optically isotropic solution simply by gentle mixing. Given in FIG. 2, different phase behaviors were created by titering various concentrations of C7F15CONH-MPEG350 surfactant dissolved in water solution with different amounts of PFOB liquid. Since the specific density of PFOB is 1.94 which is larger than the water density, the milky PFOB-in-water emulsion settled down on the bottom of the vial (FIG. 2A). […]
# Aqueous solutions containing given quantities of fluorosurfactant were progressively added with PFC and placed in a thermostat water bath set at 25° C. After each addition, the aspect of the solution was recorded, along with number, nature, and approximate volumes of phases. […] Ternary phase diagrams were then plotted to distinguish the boundaries between different phases and used to quantitate the proportion of three components (water, fluorosurfactant, and PFC) forming PFC microemulsion.
# The ternary phase diagram given in FIG. 3 was determined by the weight fraction of water, PFOB, and RF-MPEG350. The PFOB microemulsion domain was determined to be the area under the test points symbolized as ▪. […]
Compound,Solubility in CF-76 (3 M) ([1]; @ RT),Solubility in Ethanol ([1]; @ RT),Solubility in Hexane ([1]; @ RT),Solubility in Acetone [1],Solubility in Hexane ([1]; > 30° C.),Solubility in CF-76 (3 M) ([1]; > 40° C.),Solubility in Ethanol ([1]; > 40° C.),Solubility in PFOB or ZT85 (rank order) [2],"Size of PFC microemulsion domain in ternary phase diagram ([3]; PFOB and ZT85, 25° C.)","Formation of transparent PFC microemulsion ([3]; PFOB or ZT85 / water / fluorosurfactant, 25° C., no co-surfactant)"
CCCCCCCCNC(=O)C(F)(F)C(F)(F)C(F)(F)C(F)(F)C(F)(F)C(F)(F)C(F)(F)C(F)(F)F [C8F17CONHC8H17],S,S,S,S,,,,,,
CCCCCCCCCCCCNC(=O)C(F)(F)C(F)(F)C(F)(F)C(F)(F)C(F)(F)C(F)(F)C(F)(F)F [C7F15CONHC12H25],@ RT → P >,@ RT → P >,@ RT → P >,S,30 °C → S,40 °C → S,40 °C → S,,,
CCCCCCCCCCCCNC(=O)C(F)(F)C(F)(F)C(F)(F)C(F)(F)C(F)(F)C(F)(F)F [C6F13CONHC12H25],@ RT → P >,S,S,S,,40 °C → S,,,,
C7F15CONH-PEG550-OCH3,,,,,,,,C7F15-MPEG350>C7F15-MPEG550>C7F15-MPEG750,,
C7F15CONH-PEG750-OCH3,,,,,,,,C7F15-MPEG350>C7F15-MPEG550>C7F15-MPEG750,,
C7F15CONH-PEG350-OCH3,,,,,,,,C7F15-MPEG350>C7F15-MPEG550>C7F15-MPEG750,largest PFC microemulsion region,PFC-in-water microemulsion
CCCCCCCCCCCCNC(=O)C(F)(F)C(F)(F)C(F)(F)C(F)(F)C(F)(F)C(F)(F)C(F)(F)C(F)(F)F [C8F17CONHC12H25],@ RT → P >,@ RT → P >,@ RT → P >,S,30 °C → S,40 °C → S,40 °C → S,,,
